These are literature values, as cited in patent US20140274796A1, “Methods, Systems, and Compositions for In Vitro Concentric Cell Culture Analog Systems” (University of Central Florida Research Foundation, Inc., priority 2013, published 2014).

The conditions of data set [1]: in vivo.
For data set [2] the following is noted: literature statement [Scollon 2009].
The subject of data set [3] is sodium-channels of squid axon-membranes. Conditions: literature statement [Lund 1982].

Consider `CC1(C)C(C=C(Cl)Cl)C1C(=O)OCc1cccc(Oc2ccccc2)c1` (single isomer, unassigned) [cis isomers, permethrin], for which the “toxicity relative to trans isomers” value in data set [1] was “about ten times more toxic than the trans isomers”. Further, the “metabolic rate relative to trans isoform” value in data set [2] was “much slower”.

As to `CC1(C)C(C=C(Cl)Cl)C1C(=O)OCc1cccc(Oc2ccccc2)c1` (stereo not drawn) [1R-cis-, permethrin], the “activity of stereospecific isomer” value in data set [3] is reported as “active”.

In the case of `CC1(C)C(C=C(Cl)Cl)C1C(=O)OCc1cccc(Oc2ccccc2)c1` (stereo not drawn) [1R-trans-, permethrin], the “activity of stereospecific isomer” value in data set [3] is given as “active”. As for `CC1(C)C(C=C(Cl)Cl)C1C(=O)OCc1cccc(Oc2ccccc2)c1` (stereo not drawn) [1S-cis-, permethrin], the “activity of stereospecific isomer” value in data set [3] was “not”.

For the compound `CC1(C)C(C=C(Cl)Cl)C1C(=O)OCc1cccc(Oc2ccccc2)c1` (stereo not drawn) [1S-trans-, permethrin], in data set [3], the “activity of stereospecific isomer” value is reported as “not”.
